Earlier results as cited in article PMC12329520 (Molecular Therapy. Nucleic Acids, 2025).

Tested on: exon 23 of the Dmd gene
Conditions: CP10 conjugated to 2OMePS ASO, mdx mouse

For QLFPLFR [CP10], the “exon skipping in skeletal muscle tissues and heart compared with an unconjugated ASO of the same chemistry” value is given as “significant improvement in exon skipping”.
